In patent US6914045B2, “Glycopeptide antibiotics” (Wyeth Holdings Corporation, priority 2001, dated 2005):
≈ marks a conversion by molar mass, not a printed value.

Tests used:
[1] = test system: Escherichia coli; test: in vitro antibacterial evaluation, MIC by broth dilution; format: cell-based; conditions: 18 hours at 35° C.
Summary of the method: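 MIC is the lowest antibiotic concentration (tested 64-0.06 μg/mL) preventing growth of a 5×10^5 CFU/mL inoculum. Determined by broth dilution in Mueller-Hinton II medium following NCCLS standard M7-A2.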

[2] = test system: Enterococcus sp.; test: as above; format: cell-based; conditions: broth dilution, 18 hours at 35° C.
Summary of the method: (§1)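 MIC, the lowest antibiotic concentration preventing growth, was read across 64-0.06 μg/mL with 5×10^5 CFU/mL inoculum. Method followed NCCLS M7-A2 broth dilution using Mueller-Hinton II; Gram-positive strains covered recent methicillin-, penicillin- and/or vancomycin-resistant clinical isolates.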

[3] = test system: Streptococcus sp.; test: as above; format: cell-based; conditions: broth dilution, 18 hours at 35° C.
Summary of the method: as §1

[4] = test system: Staphylococcus sp.; test: as above; format: cell-based; conditions: broth dilution, 18 hours at 35° C.
Summary of the method: as §1

[5] = anatomic pathology (histopathology of heart and kidney) in mice; format: in vivo; conditions: CD-1 mice, 20 mg/kg intravenously daily for 9 days, necropsy day 10, microscopic histopathology
Protocol: Samples of tissues from necropsied mice were formalin-fixed, paraffin-embedded, sectioned, stained with hematoxylin and eosin, and examined microscopically. Histopathologic findings were recorded. These findings were subjectively graded on a scale corresponding to slight, mild, moderate, marked and severe as compared to untreated controls.

[6] = clinical pathology (serum clinical chemistry) in mice; format: in vivo; conditions: CD-1 mice, 20 mg/kg intravenously daily for 9 days, sera day 10
Protocol: 20-day-old CD-1 mice were divided into a vehicle control group (5 mice) and a treatment group (5 mice). Samples of glycopeptide antibiotics were administered at 20 mg/kg intravenously daily for 9 days.

What does the source list for `CC(c1ccccc1)C1NC(=O)CNC(=O)C(CO)NC(=O)C(C(O)C2CN(CCCCCCCCCCCCO)C(=N)N2C2OC(CO)C(O)C(O)C2O)NC(=O)C(C(O)C2CNC(=N)N2)NC(=O)C(Cc2ccc(OC3OC(CO)C(OC4OC(CO)C(O)C(O)C4O)C(O)C3O)cc2)NC1=O` (stereo not drawn) [Example 61, Cyclo[glycyl-β-methylphenylalanyl-O-(4-O-hexopyranosylhexopyranosyl)tyrosl-3-(2-iminoimidazolidin-4-yl)seryl-3-[3-hexopyranosyl-1-(12-hydroxydodecyl)-2-iminoimidazolidin-4-yl]-serylseryl]]?
MIC Escherichia coli (ATCC 25922) [1]: 128 µg/mL (≈ 86.5 µM); MIC Escherichia coli (GC 4559) [1]: 128 µg/mL (≈ 86.5 µM); MIC Escherichia coli (GC 4560) [1]: 8 µg/mL (≈ 5.41 µM); MIC Enterococcus avium (GC 4558) ([2]; Enterococcus avium (GC 4558)): 64 µg/mL (≈ 43.3 µM); MIC Enterococcus faecalis (ATCC 29212) ([2]; Enterococcus faecalis (ATCC 29212)): 128 µg/mL (≈ 86.5 µM); MIC Enterococcus faecalis (GC 4552) ([2]; Enterococcus faecalis (GC 4552)): 128 µg/mL (≈ 86.5 µM); MIC Enterococcus faecalis (GC 4553) ([2]; Enterococcus faecalis (GC 4553)): 128 µg/mL (≈ 86.5 µM); MIC Enterococcus faecalis (GC 4554) ([2]; Enterococcus faecalis (GC 4554)): 128 µg/mL (≈ 86.5 µM); MIC Enterococcus faecalis (GC 6189) ([2]; Enterococcus faecalis (GC 6189)): 128 µg/mL (≈ 86.5 µM); MIC Enterococcus faecium (GC 2243) ([2]; Enterococcus faecium (GC 2243)): >128 µg/mL; MIC Enterococcus faecium (GC 4556) ([2]; Enterococcus faecium (GC 4556)): 128 µg/mL (≈ 86.5 µM); MIC Enterococcus faecium (GC 4557) ([2]; Enterococcus faecium (GC 4557)): 128 µg/mL (≈ 86.5 µM); MIC Enterococcus avium (GC 4558) [2]: 64 µg/mL (≈ 43.3 µM); MIC Enterococcus faecalis (ATCC 29212) [2]: 128 µg/mL (≈ 86.5 µM); MIC Enterococcus faecalis (GC 2242) [2]: 128 µg/mL (≈ 86.5 µM); MIC Enterococcus faecalis (GC 2691) [2]: 128 µg/mL (≈ 86.5 µM); MIC Enterococcus faecalis (GC 3059) [2]: 128 µg/mL (≈ 86.5 µM); MIC Enterococcus faecalis (GC 4552) [2]: 128 µg/mL (≈ 86.5 µM); MIC Enterococcus faecalis (GC 4553) [2]: 128 µg/mL (≈ 86.5 µM); MIC Enterococcus faecalis (GC 4554) [2]: 128 µg/mL (≈ 86.5 µM); MIC Enterococcus faecalis (GC 6189) [2]: 128 µg/mL (≈ 86.5 µM); MIC Enterococcus faecium (GC 2243) [2]: >128 µg/mL; MIC Enterococcus faecium (GC 4556) [2]: 128 µg/mL (≈ 86.5 µM); MIC Enterococcus faecium (GC 4557) [2]: 128 µg/mL (≈ 86.5 µM); MIC Enterococcus faecalis (GC 2242) ([2]; strain GC 2242): 128 µg/mL (≈ 86.5 µM); MIC Enterococcus faecalis (GC 2691) ([2]; strain GC 2691): 128 µg/mL (≈ 86.5 µM); MIC Enterococcus faecalis (GC 3059) ([2]; strain GC 3059): 128 µg/mL (≈ 86.5 µM); MIC Streptococcus agalactiae (GC 4564) [3]: 128 µg/mL (≈ 86.5 µM); MIC Streptococcus pneumoniae (ATCC 6301) [3]: 128 µg/mL (≈ 86.5 µM); MIC Streptococcus pneumoniae (GC 1894) [3]: 64 µg/mL (≈ 43.3 µM); MIC Streptococcus pneumoniae (GC 4565) [3]: 64 µg/mL (≈ 43.3 µM); MIC Streptococcus pyogenes (GC 4563) [3]: 128 µg/mL (≈ 86.5 µM); MIC Streptococcus pneumoniae (ATCC 6301) ([3]; strain ATCC 6301): 128 µg/mL (≈ 86.5 µM); MIC Streptococcus pneumoniae (GC 1894) ([3]; strain GC 1894): 64 µg/mL (≈ 43.3 µM); MIC Streptococcus pyogenes (GC 4563) ([3]; strain GC 4563): 128 µg/mL (≈ 86.5 µM); MIC Streptococcus agalactiae (GC 4564) ([3]; strain GC 4564): 128 µg/mL (≈ 86.5 µM); MIC Streptococcus pneumoniae (GC 4565) ([3]; strain GC 4565): 64 µg/mL (≈ 43.3 µM); MIC Staphylococcus aureus (ATCC 29213) ([4]; strain ATCC 29213): >128 µg/mL; MIC Staphylococcus aureus (GC 1131) ([4]; strain GC 1131): >128 µg/mL; MIC Staphylococcus aureus (GC 3051) ([4]; strain GC 3051): >128 µg/mL; MIC Staphylococcus aureus (GC 3053) ([4]; strain GC 3053): 128 µg/mL (≈ 86.5 µM); MIC Staphylococcus aureus (GC 4541) ([4]; strain GC 4541): >128 µg/mL; MIC Staphylococcus aureus (GC 4542) ([4]; strain GC 4542): >128 µg/mL; MIC Staphylococcus aureus-SMITH (GC 4543) ([4]; strain GC 4543): >128 µg/mL; MIC Staphylococcus aureus (GC 4544) ([4]; strain GC 4544): >128 µg/mL; MIC Staphylococcus aureus (GC 4545) ([4]; strain GC 4545): >128 µg/mL; MIC Staphylococcus haemolyticus (GC 4546) ([4]; strain GC 4546): >128 µg/mL; MIC Coagulase Negative Staphylococcus (GC 4547) ([4]; strain GC 4547): 128 µg/mL (≈ 86.5 µM); MIC Coagulase Negative Staphylococcus (GC 4548) ([4]; strain GC 4548): >128 µg/mL; MIC Coagulase Negative Staphylococcus (GC 4549) ([4]; strain GC 4549): 128 µg/mL (≈ 86.5 µM); MIC Coagulase Negative Staphylococcus (GC 4551) ([4]; strain GC 4551): >128 µg/mL; MIC Coagulase Negative Staphylococcus (GC 6257) ([4]; strain GC 6257): >128 µg/mL; Anatomical Pathology (Day 10), Heart [5]: 0; Anatomical Pathology (Day 10), Kidney [5]: +++; Clinical Chemistry (Day 10) % of Control, BUN [6]: +157%; Clinical Chemistry (Day 10) % of Control, Creatinine [6]: +122%
